Test results taken from patent US20240317800A1, “NOVEL COMPOUNDS AND ANTIBACTERIAL COMPOSITION COMPRISING THE SAME” (KOREA INSTITUTE OF OCEAN SCIENCE & TECHNOLOGY, priority 2022, published 2024).

tested on: Mycoplasma hyorhinis ATCC 17981; test: Mycoplasma inhibitory activity, broth dilution assay (MIC); format: cell-based; conditions: ATCC17981, 168 h, PPLO liquid medium, 7 days, 37° C., 5% CO2, lowest concentration at which bacteria did not grow, read-out: MIC (minimum inhibitory concentration)
Experimental: For compounds 1 to 3, the inhibitory activity against Mycoplasma hyorhinis was evaluated using a broth dilution assay. Briefly, an experimental strain Mycoplasma hyorhinis ATCC 17981 was cultured in a PPLO liquid medium at 37° C. in a 5% CO2 incubator. […] 100 μL of the culture medium, which made with the strain suspension at approximately 2×10^4 CFU/mL, was added to each well of a 96-well plate. The plates were incubated for 7 days in a 37° C., 5% CO2 incubator. As the bacteria grew, the medium turned yellow. […] BioMycoX® (CellSafe, Korea) was used as a positive control.

MIC, 31 µg/mL:
CCCCCCCCCCC[C@@H]1CC(=O)N[C@@H](CCC(=O)O)C(=O)N[C@@H](CC(C)C)C(=O)N[C@H](CC(C)C)C(=O)N[C@@H](CC(C)C)C(=O)O1 [Compound 1, Bacilotetrin C]
CC(C)CCCCCCCCC[C@@H]1CC(=O)N[C@@H](CCC(=O)O)C(=O)N[C@@H](CC(C)C)C(=O)N[C@H](CC(C)C)C(=O)N[C@@H](CC(C)C)C(=O)O1 [Compound 3, Bacilotetrin E]
CCC(C)CCCCCCCC[C@@H]1CC(=O)N[C@@H](CCC(=O)O)C(=O)N[C@@H](CC(C)C)C(=O)N[C@H](CC(C)C)C(=O)N[C@@H](CC(C)C)C(=O)O1 (stereo partly drawn) [Compound 2, Bacilotetrin D]
